According to patent publication US12551578B2, “Compound or salt thereof” (SHIZUOKA PREFECTURAL UNIVERSITY CORPORATION, priority 2019, dated 2026):

Legend:
bovine thymus DNA [1] = assay: DNA intercalation analysis by fluorescence intensity on mixing with DNA; type: binding; details: for intercalation into DNA judged from fluorescence intensity: FIG. 4 and Table 1; for Fluorescence intensity ratio (DNA20/DNA0): compound 10 μg/mL in 0.1 M Tris-HCl pH 7.5, DNA 20 μg/mL versus 0 μg/mL
Experimental: Since the fluorescence intensity was improved due to intercalation of the compound between base pairs of DNA, the fluorescence intensity was measured by mixing DNA and the compound. First, the compounds shown in Table 1 were dissolved in a 0.1 M Tris-HCl buffer solution (pH 7.5) at 10 μg/mL, and bovine thymus DNA was added thereto at 0 μg/mL, 5 μg/mL, 10 μg/mL or 20 μg/mL to prepare measurement samples. Then, the fluorescence intensity of each measurement sample was measured (excitation wavelength 355 to 536 nm, fluorescence wavelength of 420 to 605 nm). In Table 1, the fluorescence intensity ratio is a ratio (DNA20/DNA0) of the fluorescence intensity (DNA20) when the DNA concentration was 20 μg/mL and the fluorescence intensity (DNA0) when the DNA concentration was 0 μg/mL.

[2] = Quantum yield and molar absorption coefficient (Table 1); type: physicochemical
bovine thymus DNA [3] = assay: DNA intercalation analysis by shift of absorption wavelength (bathochromic effect); type: binding; details: for Absorption wavelength difference: DNA 30 μg/mL versus 0 μg/mL; for intercalation into DNA judged from absorption wavelength shift: Table 2; for DNA0: Absorption wavelength when DNA concentration was 0 μg/mL / DNA30: Absorption wavelength when DNA concentration was 30 μg/mL: compound 10 μg/mL in 0.1 M Tris-HCl, peak top wavelength
Experimental: In addition, since the absorption spectrum shifted to the long wavelength side due to intercalation of the compound between base pairs of DNA (bathochromic effect), the shift of the absorption wavelength was measured by mixing DNA and the compound. Specifically, the compounds shown in Table 2 were dissolved in a 0.1 M Tris-HCl buffer solution at 10 μg/mL, and bovine thymus DNA was added thereto at 0 μg/mL or 30 μg/mL to prepare measurement samples. Then, the absorption spectrum of each measurement sample was measured, and the absorption wavelength (peak top wavelength) was determined.

[4] = tested on: reactive oxygen species in the brain (right striatum); assay: PET measurement of probe accumulation in SNP model rats; type: in vivo, rat; details: for ratio of radioactivity accumulated amount (SUV) between right striatum (SNP) and left striatum (control): 20 MBq i.v. bolus, 30-45 minutes after administration, FIGS. 2(E) and 2(F)
Experimental: Accumulation of [^18F]FHM, [^18F]FPHM and [^11C]HM was analyzed using rats in which reactive oxygen species were produced in the brain (right striatum) to which sodium nitroprusside (SNP) has been administered.
While rats were anesthetized with 1.5-2.0% isoflurane (dilution gas:oxygen), 4 μL of a 20 nmol/μL SNP solution (saline) was injected into the right striatum of the rat at a rate of 0.8 μL/min using a Hamilton syringe (26 gauge). 4 μL of a saline was injected into the left striatum in the same method. PET measurement was performed on SNP-administered rats (SNP model rats) 60 minutes after SNP administration.
After transmission measurement was performed for 15 minutes for absorption correction, a bolus of 20 MBq [^18F]FHM, [^18F]FPHM or [^11C]HM was administered from the caudal vein of the rat, and emission measurement was performed for 90 minutes. After PET measurement was completed, the PET accumulation images of the brain 0-15 minutes, 15-30 minutes, 30-45 minutes, 45-60 minutes, 60-75 minutes, and 75-90 minutes after [^18F]FHM, [^18F]FPHM or [^11C]HM was administered were superimposed on the brain CT images. Regions of interest were set on the PET images of the right striatum and the left striatum identified from the X-CT images, and the value normalized according to the body weight of each individual subject and the administered radioactivity amount was used as the amount of [^18F]FHM, […] or […] accumulated at each site (radioactivity accumulated amount (SUV)) (each group, 5 rats).
In addition, as a control, PET measurement was performed on rats in which only a saline was administered to both the right striatum and the left striatum (control rat) in the same method as above.

[5] = tested on: reactive oxygen species in the brain (right striatum); assay: Brain fluorescence imaging in SNP model rats; type: in vivo, rat; details: 5 mg/kg i.v. bolus, brain extracted 1 hour after administration, compared to DHE, FIG. 5
Experimental: 4 μL of a 20 nmol/μL SNP solution (phosphate buffered saline (PBS) solution) was injected into the right striatum of the rat at a rate of 0.8 μL/min using a Hamilton syringe (26 gauge). 4 μL of PBS was injected into the left striatum in the same method. A bolus of 5 mg/kg DHE or isopropyl reduced component was administered from the caudal vein of the rat 60 minutes after SNP administration for SNP-administered rats (SNP model rats). The brain was extracted 1 hour after administration and a 20 μm-thick frozen section was prepared. Brain fluorescence images were obtained by a scanner type image analysis device (FLA700: excitation wavelength of 532 nm, filter 580 nm).

ε · ϕ (molar absorption coefficient x quantum yield) [2]	ϕ: quantum yield [2]	DNA0: Absorption wavelength when DNA concentration was 0 μg/mL (bovine thymus DNA [3])	SMILES	intercalation into DNA judged from fluorescence intensity (bovine thymus DNA [1])	Fluorescence intensity ratio (DNA20/DNA0) (bovine thymus DNA [1])	Absorption wavelength difference (bovine thymus DNA [3])	intercalation into DNA judged from absorption wavelength shift (bovine thymus DNA [3])	DNA30: Absorption wavelength when DNA concentration was 30 μg/mL (bovine thymus DNA [3])	ratio of radioactivity accumulated amount (SUV) between right striatum (SNP) and left striatum (control) [4]	accumulation in the right striatum to which SNP has been administered (brain fluorescence images) [5]	radioactivity accumulated amount in the right striatum, comparison of probes ([4]; FIGS. 2(A) and 2(B))
118.8	8.48 10^−3	559 nm	CC(C)N(c1ccc2c(c1)C(c1ccccc1)N(C)c1cc(N(C(C)C)C(C)C)ccc1-2)C(C)C (stereo not drawn) [Di-isopropyl form]	almost no intercalation into DNA occurred	0.759	4 nm	almost no intercalation into DNA occurred	563 nm			
47.04	3.62 10^−3	557 nm	CN1c2cc(NC3CCC3)ccc2-c2ccc(NC3CCC3)cc2C1c1ccccc1 (stereo not drawn) [Cyclobutyl form]	almost no intercalation into DNA occurred	1.62	18 nm	almost no intercalation into DNA occurred	575 nm			
			[11CH3]N1c2cc(N)ccc2-c2ccc(N)cc2C1c1ccccc1 (stereo not drawn) [[^11C]HM, reference compound]						about 3 times		
			CC(C)Nc1ccc2c(c1)C(c1ccc(F)cc1)N(C)c1cc(NC(C)C)ccc1-2 (stereo not drawn) [isopropyl reduced component]							a large amount of accumulation in the right striatum	
			CN1c2cc(N)ccc2-c2ccc(N)cc2C1c1ccc([18F])cc1 (stereo not drawn) [[^18F]FHM]						about 5 times		larger in [^18F]FHM than in [^11C]HM
568.8	40.6 10^−3	517 nm	CC(C)Nc1ccc2c(c1)C(c1ccccc1)N(C)c1cc(NC(C)C)ccc1-2 (stereo not drawn) [Isopropyl form]	almost no intercalation into DNA occurred	0.996	8 nm	almost no intercalation into DNA occurred	525 nm			

SMILES	ε · ϕ (molar absorption coefficient x quantum yield) [2]	ϕ: quantum yield [2]	DNA0: Absorption wavelength when DNA concentration was 0 μg/mL (bovine thymus DNA [3])	intercalation into DNA judged from fluorescence intensity (bovine thymus DNA [1])	Fluorescence intensity ratio (DNA20/DNA0) (bovine thymus DNA [1])	Absorption wavelength difference (bovine thymus DNA [3])	intercalation into DNA judged from absorption wavelength shift (bovine thymus DNA [3])	DNA30: Absorption wavelength when DNA concentration was 30 μg/mL (bovine thymus DNA [3])	ratio of radioactivity accumulated amount (SUV) between right striatum (SNP) and left striatum (control) [4]	accumulation in the right striatum to which SNP has been administered (brain fluorescence images) [5]	radioactivity accumulated amount in the right striatum, comparison of probes ([4]; FIGS. 2(A) and 2(B))
C[n+]1c(-c2ccccc2)c2cc(N)ccc2c2ccc(N)cc21 [Methidium, reference compound]	97.34	2.68 10^−3	481 nm	intercalation into DNA occurred	3.03	40 nm	intercalation into DNA occurred	521 nm			
